Data set [1] relates to nerve injury pain. In words: Nerve constriction injury (PSNL) pain model, mechanical withdrawal. The data set is classed as in vivo, mouse. The protocol: For pain-related behavior, mechanical allodynia was assessed with von Frey filaments (Ugo Basile, Italy). The mice were placed on a 5×5-mm wire-mesh grid floor in individual compartments to avoid visual stimulation and allowed to adapt for 0.5 h prior to the von Frey test. The von Frey filament was then applied to the middle of the plantar surface of the hind paw with 5 g force. The withdrawal responses following the hind paw stimulation were measured at least three times, and the mechanical allodynia, which was defined as an increase in the number of withdrawal responses to the stimulation, was compared.
Thus, in vivo, KP functions as an analgesic when administered systemically in injury-related pain models.
Next, whether the analgesic effects of KP were mediated centrally at the spinal cord level was assessed.
Mechanical withdrawal was measured thresholds after nerve constriction injury (PSNL) (FIG. 12B and FIG. 12C). […] Thus, δ-cat(S276A) spinal transgenesis via AAV9 is sufficient to evoke analgesia after nerve constriction injury, to lesser degree also with δ-cat(WT). Importantly, δ-cat(S276A) spinal transgenesis was accompanied by increased expression of KCC2 in the SCDH. […] Moreover, our discovery points toward a genetically-encoded approach that can be developed for translation into clinical use as an alternative or complement to KP-related small molecules.

Data set [2] deals with neuronal [Cl—]i. In words: Clomeleon chloride imaging in rat primary cortical neurons. Particulars: VU0240551 2.5 μM add-on; both vehicle-treated and KP-treated. The data set is classed as cell-based. As to the method: Chloride imaging of primary cultured cortical neurons was conducted as previously described (Kuner and Augustine, 2000, Neuron 27:447-459; Liedtke et al., 2013, Small 9:1066-1075; Yeo et al., 2009, J Neurosci 29:14652-14662). A Clomeleon expression plasmid was transfected into primary cortical neurons by electroporation (Amaxa Nucleofector Device). Transfected neurons were verified by yellow fluorescent protein (YFP) fluorescence, and ratiometric images (excitation at λ=434 nm, dual emission at λ=485 and 535 nm; for resting chloride, six stable frames at […] were captured, which were averaged) were acquired using RATIOTOOL program. Calibration of Clomeleon signals (535 nm/485 nm emission ratio) was performed by using tributyltin-nigericin to establish a standard curve, which was then normalized for measured intraneuronal pH to take into account the pH sensitivity of Clomeleon.

The subject of data set [3] is KCC2 mRNA. Nature of the data set: KCC2 mRNA RT-qPCR in rat primary cortical neurons. The format is cell-based. Particulars: rat primary cortical neurons; dose-dependent, FIG. 10. The protocol:
Total RNA was isolated from cultured cell samples using Directzol RNA miniprep kit (ZymoResearch). The protocol includes DNAse digestion to exclude genomic DNA from preparations. Total RNA (1 μg) was reverse transcribed using oligo primers (dT) and SuperScriptIII first-strand synthesis kit (Invitrogen). Gene expression was assessed by quantitative real-time PCR using 2×SYBR Green Master Mix (Qiagen) and a three-step cycling protocol (anneal at 60° C./elongate at 72° C., denature at 95° C.). Specificity of primers was verified by dissociation/melting curve for the amplicons when using SYBR Green as a detector. All reactions were performed in triplicates. The amount of target messenger RNA (mRNA) in the experimental group relative to that in the control was determined from the resulting fluorescence and threshold values (Ct) using the ΔΔCt method. βIII-tubulin was used as housekeeping gene. oligodT-initiated reverse transcription of 1 μg total RNA, DNA-se treated, was subjected to RT-qPCR using primers specific for KCC2 for rat and KCC2 for human sequences, normalized for neuronal βIII-tubulin, as previously described (Yeo et al., 2009, J Neurosci 29:14652-14662). For cultured neurons, total RNA was extracted from pelleted cells, and for spinal cord tissue it was extracted from microdissected lumbar spinal cord dorsal horn.

Data set [4] deals with δ-cat. Nature of the data set: Nuclear transfer of transfected human δ-cat in N2a cells. The data set is classed as cell-based, mouse. Particulars: mutation vs δ-cat(WT), without KP. From the text:
(§1) Plasmid containing human δ-catenin (CTNND2, NM_001288717) open reading frame was obtained from GeneCopeia (EX-A4285-M02) and cloned into pCMV-ENTER vector (Origene PS100001). Site-directed mutagenesis using Phusion DNA Polymerase enzyme (Thermofisher F549L) in conjunction with complementary primers bearing the specific mutation were used to generate the S276A […] mutation S276A. PCR was followed by Dpn1 enzyme digestion to remove parental plasmid DNA. All constructs were verified by sequencing. pCS-CMV-tdTomato plasmid was obtained from Addgene (cat. #30530).
To investigate the relevance of δ-cat residue S276, N2a neural cells were studied because these cells transfect at higher efficiency than primary cortical neurons. In our cultures, N2a cells expressed neuronal ßIII-tubulin in elongated processes as determined by immune-labeling as an indicator of their neuronal differentiation. […] This increase in nuclear transfer was very similar to the trafficking we recorded in primary cortical neurons, thus validating the cell line. […] Of note, there was no increase of nuclear transfer of δ-cat(S276A) upon KP treatment (FIG. 8C and FIG. 8D).

In data set [5] the test system is KCC2 mRNA. In words: KCC2 mRNA RT-qPCR in microdissected spinal cord dorsal horn. The data set is classed as in vivo, mouse. The following applies: AAV9 i.t; vs tdTomato control. The protocol: oligodT-initiated reverse transcription of 1 μg total RNA, DNA-se treated, was subjected to RT-qPCR using primers specific for KCC2 for rat and KCC2 for human sequences, normalized for neuronal βIII-tubulin, as previously described (Yeo et al., 2009, J Neurosci 29:14652-14662). For cultured neurons, total RNA was extracted from pelleted cells, and for spinal cord tissue it was extracted from microdissected lumbar spinal cord dorsal horn.
With the aforementioned findings and in view of the SCDH as the likely site of analgesic action of KP (Coull et al., 2003, Nature 424:938-942; Gagnon et al., 2013, Nat Med 19:1524-1528), SCDH KCC2 expression and function in nerve injury and response to KP was assessed. […] To measure KCC2 mRNA, SCDH Rexed-layers I-II were microdissected with laser capture followed by RT-qPCR. SCDH KCC2 protein expression was measured morphometrically after KCC2 immunolabeling using SCDH laminae I-II as the region-of-interest (FIG. 5B).

Data set [6] has as its system KCC2 mRNA. Nature of the data set: KCC2 mRNA in differentiated N2a cells transfected with δ-cat constructs. The format is cell-based, mouse. The following applies: δ-cat construct vs control transfection.
Description: as §1
Total RNA was isolated from cultured cell samples using Directzol RNA miniprep kit (ZymoResearch). The protocol includes DNAse digestion to exclude genomic DNA from preparations. […] Gene expression was assessed by quantitative real-time PCR using 2×SYBR Green Master Mix (Qiagen) and a three-step cycling protocol (anneal at 60° C./elongate at 72° C., denature at 95° C.). […] The amount of target messenger RNA (mRNA) in the experimental group relative to that in the control was determined from the resulting fluorescence and threshold values (Ct) using the ΔΔCt method. βIII-tubulin was used as housekeeping gene.
Next, the question of whether δ-cat, when expressed as a spinal transgene in sensory relay neurons, will facilitate analgesia in nerve constriction injury was assessed. […]

Turning to `Cc1csc(NC(=O)CSc2ccc(-c3ccccc3)nn2)n1` [VU0240551], the “effect of i.t co-application with KP on KP analgesia” value in data set [1] (day 7, 3 h, 4 h, 5 h after i.t injection) was “eliminates the central analgesic effects of KP”. The “[Cl—]i with add-on KCC2-transport blocker” value in data set [2] is not below 120 mM.

`O=C1[C@H](Cc2ccc(O)cc2)N2C(=O)CCN(C(=O)NCc3ccccc3)[C@H]2CN1Cc1cccc2ccccc12` [ICG-001]: the “KCC2 mRNA expression” value in data set [3] is “significantly decreases”.

“δ-cat(S276A): human δ-catenin S276A mutant transgene (SEQ ID NO:32), as plasmid or AAV9 vector driven by human synapsin promoter”: the “nuclear transfer of the transfected construct” value in data set [4] is given as “increases nuclear transfer”. The “mechanical withdrawal thresholds after PSNL” value in data set [1] (AAV9-huSyn, 5×10^9 viral genomes i.t, vs tdTomato control, to d18) is given as “Significantly less sensitization”. In addition, the “KCC2 mRNA in microdissected SCDH” value in data set [5] is “significantly increased”. Moreover, in data set [6], the “KCC2 mRNA expression” value was “slightly elevated”.

Source of the values: patent publication US20220281930A1, “COMPOSITIONS AND METHODS FOR THE TREATMENT OF PATHOLOGICAL PAIN AND ITCH” (DUKE UNIVERSITY, priority 2019, published 2022).
